In general, pIC50 refers to the IC50 on a negative log10 scale, so that one unit is a factor of ten. A higher pIC50 goes with a small IC50.

pIC50: −log10 of the molar value. Like-named read-outs stand apart in the source and are kept apart here.

The target of one assay is TEAD1 (Homo sapiens, UniProt P28347). As to the kind of experiment: TR-FRET (Lipid HTRF) TEAD lipid pocket probe displacement assay, TEAD1. The assay is classed as binding. The settings on record: His-tagged TEAD1, biotinylated lipid pocket probe, 4 hours. A general note: In TR-FRET formats the signal depends on donor and acceptor labels being close together.
TEAD1, sequence (P28347 whole entry, species assumed): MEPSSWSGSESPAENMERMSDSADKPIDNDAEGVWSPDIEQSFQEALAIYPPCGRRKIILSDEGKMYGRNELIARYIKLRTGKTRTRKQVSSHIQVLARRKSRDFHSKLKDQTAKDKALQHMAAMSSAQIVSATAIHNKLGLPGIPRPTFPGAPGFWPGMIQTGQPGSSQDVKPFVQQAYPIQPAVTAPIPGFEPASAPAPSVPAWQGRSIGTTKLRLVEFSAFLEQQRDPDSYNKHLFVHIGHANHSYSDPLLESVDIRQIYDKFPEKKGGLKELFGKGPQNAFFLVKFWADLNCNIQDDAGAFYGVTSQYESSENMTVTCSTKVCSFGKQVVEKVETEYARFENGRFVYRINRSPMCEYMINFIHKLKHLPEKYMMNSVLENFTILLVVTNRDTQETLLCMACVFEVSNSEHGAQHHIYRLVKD
The next assay deals with TEAD3 (Homo sapiens, UniProt Q99594). As to the kind of experiment: TR-FRET (Lipid HTRF) TEAD lipid pocket probe displacement assay, TEAD3. Type of assay: binding. The settings on record: His-tagged TEAD3, biotinylated lipid pocket probe, 4 hours.
TEAD3, sequence (Q99594 whole entry, species assumed): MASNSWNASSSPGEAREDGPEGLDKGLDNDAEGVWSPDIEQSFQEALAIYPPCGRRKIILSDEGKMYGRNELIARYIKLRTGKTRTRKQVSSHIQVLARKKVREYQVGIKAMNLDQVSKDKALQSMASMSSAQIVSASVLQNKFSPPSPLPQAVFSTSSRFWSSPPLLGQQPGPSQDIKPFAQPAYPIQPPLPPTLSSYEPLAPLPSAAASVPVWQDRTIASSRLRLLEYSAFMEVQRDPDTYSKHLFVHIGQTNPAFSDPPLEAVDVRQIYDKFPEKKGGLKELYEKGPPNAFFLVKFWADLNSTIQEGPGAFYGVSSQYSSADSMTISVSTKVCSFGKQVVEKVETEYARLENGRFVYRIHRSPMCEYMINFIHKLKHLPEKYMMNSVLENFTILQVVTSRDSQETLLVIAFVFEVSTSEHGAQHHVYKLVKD
A further assay concerns the target TEAD4 (Homo sapiens, UniProt Q15561). As to the kind of experiment: TR-FRET (Lipid HTRF) TEAD lipid pocket probe displacement assay, TEAD4. The settings on record: His-tagged TEAD4, biotinylated lipid pocket probe, 4 hours. Type of assay: binding.
The target of assay [1] is T1, TEAD2 (Homo sapiens, UniProt Q15562).
T1 sequence (Q15562 whole entry, species assumed): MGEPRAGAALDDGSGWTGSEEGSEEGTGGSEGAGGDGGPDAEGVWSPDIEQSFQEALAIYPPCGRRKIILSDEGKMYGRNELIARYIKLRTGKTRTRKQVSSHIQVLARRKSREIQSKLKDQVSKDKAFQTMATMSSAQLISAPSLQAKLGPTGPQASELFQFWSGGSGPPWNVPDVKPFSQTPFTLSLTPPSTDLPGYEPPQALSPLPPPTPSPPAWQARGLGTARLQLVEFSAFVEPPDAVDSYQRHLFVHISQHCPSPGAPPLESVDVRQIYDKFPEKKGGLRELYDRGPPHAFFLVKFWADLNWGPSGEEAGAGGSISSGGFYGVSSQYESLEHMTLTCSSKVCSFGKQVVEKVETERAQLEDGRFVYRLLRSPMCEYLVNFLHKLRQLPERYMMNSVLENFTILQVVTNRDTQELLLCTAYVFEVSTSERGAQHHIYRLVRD
The target in assay [2] is T1, TEAD2. Put plainly: biochemical.

TEAD4, sequence (Q15561 whole entry, species assumed): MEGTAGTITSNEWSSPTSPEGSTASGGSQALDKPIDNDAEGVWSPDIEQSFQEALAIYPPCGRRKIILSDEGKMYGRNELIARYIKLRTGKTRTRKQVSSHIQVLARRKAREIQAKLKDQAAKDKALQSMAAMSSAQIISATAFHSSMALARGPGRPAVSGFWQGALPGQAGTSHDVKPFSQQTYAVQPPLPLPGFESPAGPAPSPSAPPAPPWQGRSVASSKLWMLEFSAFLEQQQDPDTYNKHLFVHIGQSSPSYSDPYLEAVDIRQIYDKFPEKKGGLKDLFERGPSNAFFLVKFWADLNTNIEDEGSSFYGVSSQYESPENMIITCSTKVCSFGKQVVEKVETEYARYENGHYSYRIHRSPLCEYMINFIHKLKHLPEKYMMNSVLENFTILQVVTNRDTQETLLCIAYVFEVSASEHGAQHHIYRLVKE
Method for TEAD1: (§1) His-tagged TEAD proteins are pre-incubated with TEAD project compounds for 30 minutes or 4 hours at room temperature. Biotinylated lipid pocket probes are then added to the TEAD/Compound mixture and incubated for 60 minutes at room temperature. The lipid pocket probe competes with the test compound for the TEAD lipid pocket until equilibrium is reached. After 60 minutes, Europium labelled anti-His (Perkin Elmer #AD0110) and XL665 labelled streptavidin (CIS Bio 610SAXAC) are added to the TEAD/test compound/lipid pocket mixture and incubated for 30 minutes or 4 hours. TR-FRET values are then measured using an EnVision multi-label plate reader (Perkin Elmer Cat #2104-001 0A.) If the lipid pocket probe binds to TEAD as expected, a TR-FRET signal results from the proximity of anti-His Eu and XL665. If a TEAD lipid pocket binder such as binds and displaces the lipid pocket probe, the disruption of the TEAD:probe interaction results in a decrease in TR-FRET signal. The potency of compounds as TEAD lipid pocket binders is determined by IC50 value generated using a non-linear 4 parameter curve fit.
Method for TEAD4: as §1

`C=CC(=O)NCc1cc(-c2ccc(OC(F)(F)F)cc2)c2ncn(C)c2c1C#CCO` [Compound 58, N-[[4-(3-hydroxyprop-1-ynyl)-3-methyl-7-[4-(trifluoromethoxy)phenyl]benzimidazol-5-yl]methyl]prop-2-enamide]: the pIC50 at TEAD1 was 8.16; on TEAD3 it was 7.03; at TEAD4 it was 8.46; at TEAD2 [1] it was 8.22.

For the compound `C=CC(=O)NCc1cc(-c2ccc(OC(F)(F)F)cc2)c2ncn(C)c2c1[C@@H](C)O` (single isomer, unassigned) [Compound 32], the negative logarithm of the IC50 (pIC50) is 7.49 on TEAD1, 5.60 at TEAD3, 7.27 on TEAD4 and 8.00 on TEAD2 [1].

Consider `C=CC(=O)N(C)Cc1cc(-c2ccc(OC(F)(F)F)cc2)c2ncoc2c1[C@@H](O)CO` (single isomer, unassigned) [Compound 108], for which the pIC50 on TEAD1 was 6.89; at TEAD3, 7.33; at TEAD4, 7.62; against TEAD2 [2] it was 7.12.

In the case of `C=CC(=O)NCc1cc(-c2ccc(OC(F)(F)F)cc2)c2cccnc2c1[C@@H](O)CO` (single isomer, unassigned) [Compound 46], the pIC50 at TEAD1 was 7.66; on TEAD3, 7.10; on TEAD4, 6.90; on TEAD2 [2], 8.21.

For `C=CC(=O)NCc1cc(-c2ccc(OC(F)(F)F)cc2)c2nccnc2c1[C@@H](C)O` (single isomer, unassigned) [Compound 82], the negative logarithm of the IC50 (pIC50) on TEAD1 is 7.16; on TEAD3, 5.74; at TEAD4, 6.62; against TEAD2 [2], 7.82.

Values taken from patent US12275745B2, “Therapeutic compounds and methods of use” (Genentech, Inc., priority 2021, dated 2025).
